This note sets out measurements from patent publication US4764533A, “Erythro-1,2-1-pentanones” (Klinge Pharma GmbH, priority 1981, dated 1988).

One assay relates to uterus. Nature of the assay: Antiuterotropic effect (modified Dorfman test, uterus weight). It counts as in vivo, rat (Spraque-Dawley, sexually mature female). As to conditions: 3 mg/kg/day, esophageal tube, 21 days, six times per week; 10 animals. The protocol: The measurement of the antiuterotropic action was effected following a three-week treatment with the active ingredient of sexually mature, female rats. […] The antiuterotropic effect was determined by a modified Dorfman test (R. I. Dorfman, "Methods in Hormone Research II" p. 707, Academic Press, New York-London, 1962), on sexually mature female Spraque-Dawley rats. The test compounds were taken up in a 0.25% aqueous agar suspension and administered by esophageal tube over a period of 21 days, six times per week. Following the completion of the experiment, the uterus weight of animals treated with the active ingredient was related to the uterus weight of the control animals, which received only an empty agar suspension.

Another assay deals with T1, estradiol receptor (Oryctolagus cuniculus, UniProt G1SML6).
T1 construct: The uterus cytosal of female, prepubertal, white rabbits (New Zealand); from tissue; host or cells: uterus cytosol of female prepubertal New Zealand white rabbits
T1 sequence (G1SML6 1-598): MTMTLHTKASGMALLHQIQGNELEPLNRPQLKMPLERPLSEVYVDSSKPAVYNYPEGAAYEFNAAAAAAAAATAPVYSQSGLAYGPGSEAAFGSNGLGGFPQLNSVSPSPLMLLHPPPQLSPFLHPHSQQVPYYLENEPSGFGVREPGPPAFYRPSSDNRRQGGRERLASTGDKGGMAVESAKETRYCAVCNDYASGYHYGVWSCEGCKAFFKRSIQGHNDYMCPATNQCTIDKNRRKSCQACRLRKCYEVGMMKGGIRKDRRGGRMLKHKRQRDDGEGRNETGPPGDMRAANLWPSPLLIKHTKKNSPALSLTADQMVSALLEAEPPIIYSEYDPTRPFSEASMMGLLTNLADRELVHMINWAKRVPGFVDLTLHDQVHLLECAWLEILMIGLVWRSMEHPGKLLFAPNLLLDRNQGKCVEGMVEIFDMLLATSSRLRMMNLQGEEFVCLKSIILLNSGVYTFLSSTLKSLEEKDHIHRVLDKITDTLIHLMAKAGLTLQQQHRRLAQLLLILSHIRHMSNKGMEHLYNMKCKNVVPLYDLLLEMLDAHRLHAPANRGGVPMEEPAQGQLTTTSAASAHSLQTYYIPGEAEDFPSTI
The assay is described as follows: Bonding affinity to the estradiol receptor (displacement of (^3 H) estradiol, rabbit uterus cytosol). It counts as binding, rabbit (New Zealand). As to conditions: uterus cytosol of female prepubertal rabbits; 18 hours at 40° C.; 2.5×10^-9 M (^3 H) estradiol; read-out: ED50 (concentration of substance displacing 50% (^3 H) estradiol from the estradiol receptor). The source says: The determination of the binding affinity to the estradiol receptor was effected by means of the rabbit uterus cytosol.
The measurement of the bonding affinity to the estradiol receptor was affected by the method of N. Devleeschouwer, G. Leclercq, A. Danguy and J. C.

For assay [1], the system named is mammatumors induced by 7,12-dimethylbenz(a)anthracene. Nature of the assay: Mammatumor inhibiting effect (7,12-dimethylbenz(a)anthracene-induced mammatumors). As to conditions: 3 mg/kg/day, esophageal tube, 28 days, six times per week; 10 animals; control animals valued at 100%. It counts as in vivo, rat (female Spraque-Dawley, Hannover strain). Here is the method: The tumor inhibiting action was measured following a four-week treatment with the active ingredient on female rats, with mammatumors induced previously with 7,12-dimethylbenz(a)anthracene.
The tumor inhibiting effect was determined on the model of mammatumors induced by means of 7,12-dimethylbenz(a)anthracene of female Spraque-Dawley rats (Hannover strain), by the method of M. J. Golder (Europ. J. Cancer 11, 571 (1975)) and D. P. Griswold et al. (Cancer Research 26, 2169 (1966)).
The test substance were taken up in a 0.25% agar solution and administered by esophageal tube over a period of 28 days, six times per week. Twice weekly and on the 28th day of the experiment, the number of animals was ascertained and the tumor surface (mm^2 /animal) of the therapy and control animals measured. At the completion of the experiment, the percentage increase of the average tumor surface of the treated animals was determined, compared with the control animals, which were valued at 100%.

Take `CC[C@H](c1ccccc1)[C@@H](C(=O)c1ccc(OCCN2CCCC2)cc1)c1ccc(OC)cc1` (relative stereo) [Compound 7, erythro-2-(4'-methoxyphenyl)-3-phenyl-1-(4'-(2-pyrrolidin-1-yl-ethoxy)-phenyl)-1-pentanone]: in the assay with uterus, the “Weight of uterus compared to control animals” value is -43%. The IC50 on estradiol receptor was 1.1 µM.
Take `CC[C@H](c1ccccc1)[C@@H](C(=O)c1ccc(OCCN2CCCCC2)cc1)c1ccc(OC)cc1` (relative stereo) [Compound 8, erythro-2-(4'-methoxyphenyl)-3-phenyl-1-(4'-(2-piperidin-1-yl-ethoxy)-phenyl)-1-pentanone]: the IC50 on estradiol receptor was 0.0012 µM.
Consider `CC[C@H](c1ccccc1)[C@@H](C(=O)c1ccc(OCCN(C)C)cc1)c1ccccc1` (relative stereo) [Compound 1, erythro-1-(4'-(2-dimethylaminoethoxy)-phenyl)-2,3-diphenyl-1-pentanone], for which the “Relative increase of average tumor surface” value in assay [1] worked out at 53%. For the same compound, the IC50 on estradiol receptor was 6 µM.
Regarding `CC[C@H](c1ccccc1)[C@@H](C(=O)c1ccc(OCCN(C)C)cc1)c1ccc(O)cc1` (relative stereo) [Compound 9, erythro-1-(4'-(2-dimethylaminoethoxy)-phenyl)-2-(4'-hydroxyphenyl)-3-phenyl-1-pentanone], the “Relative increase of average tumor surface” value in assay [1] was found to be 30%. The “Weight of uterus compared to control animals” value in the assay on uterus was -54%. On estradiol receptor, the IC50 turned out to be 0.0054 µM.
Turning to `CC[C@H](c1ccccc1)[C@@H](C(=O)c1ccc(OCCN(CC)CC)cc1)c1ccc(OC)cc1` (relative stereo) [Compound 6, erythro-1-(4'-(2-diethylaminoethoxy)-phenyl)-2-(4'-methoxyphenyl)-3-phenyl-1-pentanone], the IC50 on estradiol receptor was 0.5 µM.
For the compound `CC[C@H](c1ccccc1)[C@@H](C(=O)c1ccc(OCCN(CC)CC)cc1)c1ccccc1` (relative stereo) [Compound 2, erythro-1-(4'-(2-diethylaminoethoxy)-phenyl)-2,3-diphenyl-1-pentanone], the “Weight of uterus compared to control animals” value in the assay on uterus is reported as -54%. Also, the IC50 at estradiol receptor was 4 µM.
In the same order, the values of `CC[C@H](c1ccccc1)[C@@H](C(=O)c1ccc(OCCN2CCCCC2)cc1)c1ccccc1` (relative stereo) [Compound 4, erythro-2,3-diphenyl-1-(4'-(2-piperidin-1-yl-ethoxy)-phenyl)-1-pentanone] are -28% and 2.8 µM.
Turning to `CC[C@H](c1ccccc1)[C@@H](C(=O)c1ccc(OCCN2CCCC2)cc1)c1ccc(O)cc1` (relative stereo) [Compound 10, erythro-2-(4'-hydroxyphenyl)-3-phenyl-1-(4'-(2-pyrrolidin-1-yl-ethoxy)-phenyl)-1-pentanone], at estradiol receptor, the IC50 was 0.08 µM.
Consider `CC[C@H](c1ccccc1)[C@@H](C(=O)c1ccc(OCCN2CCCC2)cc1)c1ccccc1` (relative stereo) [Compound 3, erythro-2,3-diphenyl-1-(4'-(2-pyrrolidin-1-yl-ethoxy)-phenyl)-1-pentanone], for which the “Weight of uterus compared to control animals” value in the assay with uterus is -36%. Moreover, the IC50 at estradiol receptor worked out at 6 µM.
The corresponding values for `CC[C@H](c1ccccc1)[C@@H](C(=O)c1ccc(OCCN(C)C)cc1)c1ccc(OC)cc1` (relative stereo) [Compound 5, erythro-1-(4'-(2-dimethylaminoethoxy)-phenyl)-2-(4'-methoxyphenyl)-3-phenyl-1-pentanone] are -47% and 4.5 µM.
